Data as given in patent US20240342292A1, “Compounds for the Degradation of EGFR Kinase” (BeiGene Switzerland GmbH, priority 2021, published 2024).

Legend:
Del19/T790M/C797S EGFR = test: EGFR degradation HTRF assay in H1975-clone #28 (DTC) cells; type: cell-based; conditions: H1975 # 28 DTC (Del19/T790M/C797S), 16h treatment; for DC50: HTRF; for Dmax (%): maximum percentage of degradation
Summary of the method: (§1)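 DC50 from a four-parameter fit of HTRF signal. H1975 mutant-EGFR clones with endogenous EGFR knocked out; 16 h treatment, 10 uM top, 5-fold × 8.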

L858R/T790M/C797S EGFR = target: T1, L858R/T790M/C797S EGFR (Homo sapiens, UniProt P00533, C797S/L858R/T790M); test: EGFR degradation HTRF assay in H1975-clone #25 (LTC) cells; type: cell-based; conditions: 16h treatment; for DC50: H1975 # 25-LTC (L858R/T790M/C797S), HTRF; for Dmax: NCI-H1975, H1975 # 25-LTC (L858R/T790M/C797S), maximum percentage of degradation
T1 construct: expressed in transfected cells; host or cells: H1975 clone #25 (lentiviral over-expression, endogenous EGFR knocked out by sgRNA)
Summary of the method: as §1

T1 sequence (P00533 25-1210 T790M/C797S/L858R): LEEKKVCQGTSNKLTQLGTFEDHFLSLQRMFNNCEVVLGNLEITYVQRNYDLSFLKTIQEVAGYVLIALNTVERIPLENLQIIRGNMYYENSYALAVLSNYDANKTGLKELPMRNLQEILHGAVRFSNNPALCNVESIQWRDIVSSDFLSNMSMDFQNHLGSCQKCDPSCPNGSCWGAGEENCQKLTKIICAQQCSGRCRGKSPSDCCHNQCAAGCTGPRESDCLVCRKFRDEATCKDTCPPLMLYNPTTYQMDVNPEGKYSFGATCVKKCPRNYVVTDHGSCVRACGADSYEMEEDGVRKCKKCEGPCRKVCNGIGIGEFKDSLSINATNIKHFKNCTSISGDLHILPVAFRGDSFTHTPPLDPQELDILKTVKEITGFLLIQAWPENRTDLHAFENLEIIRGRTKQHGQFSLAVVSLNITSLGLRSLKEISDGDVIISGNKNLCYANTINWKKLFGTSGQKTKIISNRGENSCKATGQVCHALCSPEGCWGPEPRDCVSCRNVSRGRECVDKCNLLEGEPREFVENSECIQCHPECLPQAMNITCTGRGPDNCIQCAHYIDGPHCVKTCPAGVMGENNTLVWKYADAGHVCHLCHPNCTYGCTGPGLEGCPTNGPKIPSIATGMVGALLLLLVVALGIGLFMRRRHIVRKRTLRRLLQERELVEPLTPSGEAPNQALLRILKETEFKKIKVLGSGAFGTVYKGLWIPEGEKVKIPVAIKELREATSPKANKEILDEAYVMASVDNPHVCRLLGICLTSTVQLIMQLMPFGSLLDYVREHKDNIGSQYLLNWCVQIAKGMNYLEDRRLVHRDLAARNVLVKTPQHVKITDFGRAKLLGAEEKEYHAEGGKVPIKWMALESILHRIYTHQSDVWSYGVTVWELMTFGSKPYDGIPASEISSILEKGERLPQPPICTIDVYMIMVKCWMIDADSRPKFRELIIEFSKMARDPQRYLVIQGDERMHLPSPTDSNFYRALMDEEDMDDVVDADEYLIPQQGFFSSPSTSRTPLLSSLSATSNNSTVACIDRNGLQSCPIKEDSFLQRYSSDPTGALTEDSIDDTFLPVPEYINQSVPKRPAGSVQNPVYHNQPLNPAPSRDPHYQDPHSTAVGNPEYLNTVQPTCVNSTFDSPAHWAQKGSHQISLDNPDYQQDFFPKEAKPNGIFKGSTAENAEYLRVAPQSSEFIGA

| SMILES | DC50 (Del19/T790M/C797S EGFR) | DC50 (L858R/T790M/C797S EGFR) | Dmax (L858R/T790M/C797S EGFR) | Dmax (%) (Del19/T790M/C797S EGFR) |
| --- | --- | --- | --- | --- |
| Cc1cc2cc(n1)-c1cnn(C)c1OCCC1CC1CN1/C(=N/C2=O)Nc2ccc(C(=O)N(C)C3CCN(CCc4cc(F)c([C@H]5CCC(=O)NC5=O)c(F)c4)CC3)cc21 (stereo partly drawn) [Example 234, (E)-N-(1-(4-((R)-2,6-dioxopiperidin-3-yl)-3,5-difluorophenethyl)piperidin-4-yl)-N,1^1,2^6-trimethyl-3-oxo-5^2,5^3-dihydro-1^1H,5^1H-10-oxa-4-aza-5(2,1)-benzo[d]imidazola-2(2,4)-pyridina-1(4,5)-pyrazola-7(1,2)-cyclopropanacyclodecaphane-5^6-carboxamide] | 0.637 nM | 1.09 nM | 90.1% | 85.75% |
| Cc1cc2cc(n1)-c1cnn(C)c1OCCCC1(CC1)CN1/C(=N/C2=O)Nc2ccc(C(=O)N(C)C3CCN(CCc4cc(F)c([C@H]5CCC(=O)NC5=O)c(F)c4)CC3)cc21 [Example 236, (R,E)-N-(1-(4-(2,6-dioxopiperidin-3-yl)-3,5-difluorophenethyl)piperidin-4-yl)-N,1′,6′-trimethyl-3′-oxospiro[cyclopropane-1,7′-11-oxa-4-aza-5(2,1)-benzo[d]imidazola-2(2,4)-pyridina-1(4,5)-pyrazolacycloundecaphane]-6′-carboxamide] | 0.42 nM | 0.546 nM | 88.4% | 87.56% |
| Cc1cc2cc(n1)-c1cnn(C)c1OCCCCCN1/C(=N/C2=O)Nc2ccc(C(=O)N(C)C3CCN(CCc4cc(F)c([C@H]5CCC(=O)NC5=O)c(F)c4)CC3)cc21 [Example 238, (R,E)-N-(1-(4-(2,6-dioxopiperidin-3-yl)-3,5-difluorophenethyl)piperidin-4-yl)-N,1^1,2^6-trimethyl-3-oxo-5^2,5^3-dihydro-1^1H,5^1H-11-oxa-4-aza-5(2,1)-benzo[d]imidazola-2(2,4)-pyridina-1(4,5)-pyrazolacycloundecaphane-5^6-carboxamide] | 0.565 nM | 0.602 nM | 93.2% | 83.62% |
| Cc1cc2cc(n1)-c1cnn(C)c1OCCC[C@@H](C)CN1/C(=N/C2=O)Nc2ccc(C(=O)N(C3CC3)C3CCN(CCc4cc(F)c([C@H]5CCC(=O)NC5=O)c(F)c4)CC3)cc21 [Example 239, (R,E)-N-cyclopropyl-N-(1-(4-((R)-2,6-dioxopiperidin-3-yl)-3,5-difluorophenethyl)piperidin-4-yl)-1^1, 2^6,7-trimethyl-3-oxo-5^2,5^3-dihydro-1^1H,5^1H-11-oxa-4-aza-5(2,1)-benzo[d]imidazola-2(2,4)-pyridina-1(4,5)-pyrazolacycloundecaphane-5^6-carboxamide] | 0.205 nM | 0.604 nM | 87.9% | 83.87% |
| CCN(C(=O)c1ccc2c(c1)N1C[C@H](C)CCCOc3c(cnn3C)-c3cc(cc(C)n3)C(=O)/N=C/1N2)C1CCN(CCc2cc(F)c([C@H]3CCC(=O)NC3=O)c(F)c2)CC1 [Example 241, (R,E)-N-(1-(4-((R)-2,6-dioxopiperidin-3-yl)-3,5-difluorophenethyl)piperidin-4-yl)-N-ethyl-1^1,2^6,7-trimethyl-3-oxo-5^2,5^3-dihydro-1^1H,5^1H-li-oxa-4-aza-5(2,1)-benzo[d]imidazola-2(2,4)-pyridina-1(4,5)-pyrazolacycloundecaphane-5^4-carboxamide] | 0.328 nM | 0.403 nM | 87.7% | 76.68% |
| Cc1cc2cc(n1)-c1cnn(C)c1OCCC[C@@H](C)CN1/C(=N/C2=O)Nc2ccc(C(=O)N(C)[C@@H]3CCN(CCc4cc(F)c([C@H]5CCC(=O)NC5=O)c(F)c4)C[C@H]3O)cc21 [Example 243, (R,E)-N-((3R,4R)-1-(4-((R)-2,6-dioxopiperidin-3-yl)-3,5-difluorophenethyl)-3-hydroxypiperidin-4-yl)-N,1^1,2^6,7-tetramethyl-3-oxo-5^2,5^3-dihydro-1^1H,5^1H-11-oxa-4-aza-5(2,1)-benzo[d]imidazola-2(2,4) -pyridina-1(4,5)-pyrazolacycloundecaphane-5^6-carboxamide] | 2.9 nM | 0.677 nM | 92.1% | 86.39% |
| Cc1cc2cc(n1)-c1cnn(C)c1OCCC[C@@H](C)CN1/C(=N/C2=O)Nc2ccc(C(=O)N(C)[C@H]3CCN(CCc4cc(F)c([C@H]5CCC(=O)NC5=O)c(F)c4)C[C@@H]3F)cc21 [Example 247, (R,E)-N-((3S,4S)-1-(4-((R)-2,6-dioxopiperidin-3-yl)-3,5-difluorophenethyl)-3-fluoropiperidin-4-yl)-N,1^1,2^6,7-tetramethyl-3-oxo-5^2,5^3-dihydro-1^1H,5^1H-11-oxa-4-aza-5(2,1)-benzo[d]imidazola-2(2,4)-pyridina-1(4,5)-pyrazolacycloundecaphane-5^6-carboxamide] | 0.611 nM | 0.6 nM | 92.5% | 87.12% |
| Cc1cc2cc(n1)-c1cnn(C)c1OCCC[C@@H](C)CN1/C(=N/C2=O)Nc2ccc(C(=O)N(C)[C@@H]3CCN(CCc4cc(F)c([C@H]5CCC(=O)NC5=O)c(F)c4)CC3(F)F)cc21 [Example 250, (R,E)-N—((R)-1-(4-((R)-2,6-dioxopiperidin-3-yl)-3,5-difluorophenethyl)-3,3-difluoropiperidin-4-yl)-N,1^1,2^6,7-tetramethyl-3-oxo-5^2,5^3-dihydro-1^1H,5^1H-11-oxa-4-aza-5(2,1)-benzo[d]imidazola-2(2,4)-pyridina-1(4,5)-pyrazolacycloundecaphane-5^6-carboxamide] | 0.59 nM | 1.06 nM | 88.9% | 82.13% |
| Cc1cc2cc(n1)-c1cnn(C)c1OCCC[C@@H](C)CN1/C(=N/C2=O)Nc2ccc(C(=O)N(C)[C@H]3CCN(CCc4cc(F)c([C@H]5CCC(=O)NC5=O)c(F)c4)CC3(F)F)cc21 [Example 251, (R,E)-N—((S)-1-(4-((R)-2,6-dioxopiperidin-3-yl)-3,5-difluorophenethyl)-3,3-difluoropiperidin-4-yl)-N,1^1,2^6,7-tetramethyl-3-oxo-5^2,5^3-dihydro-1^1H,5^1H-11-oxa-4-aza-5(2,1)-benzo[d]imidazola-2(2,4)-pyridina-1(4,5)-pyrazolacycloundecaphane-5^6-carboxamide] | 0.611 nM | 0.888 nM | 85.5% | 80.86% |

The next lines start with results.

| DC50 (Del19/T790M/C797S EGFR) | DC50 (L858R/T790M/C797S EGFR) | Dmax (L858R/T790M/C797S EGFR) | SMILES | Dmax (%) (Del19/T790M/C797S EGFR) |
| --- | --- | --- | --- | --- |
| 0.352 nM | 0.321 nM | 93.2% | Cc1cc2cc(n1)-c1cnn(C)c1OCCC[C@@H](C)CN1/C(=N/C2=O)Nc2ccc(C(=O)NC3CCN(CCc4cc(F)c([C@H]5CCC(=O)NC5=O)c(F)c4)CC3)cc21 [Example 242, (R,E)-N-(1-(4-((R)-2,6-dioxopiperidn-3-yl)-3,5-difluorophenethyl)piperidin-4-yl)-1^1,2^6,7-trimethyl-3-oxo-5^2,5′-dihydro-1^1H,5^1H-li-oxa-4-aza-5(2,1)-benzo[d]imidazola-2(2,4)-pyridina-1(4,5)-pyrazolacycloundecaphane-5^6-carboxamide] | 88.18% |
| 0.548 nM | 0.167 nM | 95.3% | CO[C@H]1CN(CCc2cc(F)c([C@H]3CCC(=O)NC3=O)c(F)c2)CC[C@H]1NC(=O)c1ccc2c(c1)N1C[C@H](C)CCCOc3c(cnn3C)-c3cc(cc(C)n3)C(=O)/N=C/1N2 [Example 244, (R,E)-N-((3S,4R)-1-(4-((R)-2,6-dioxopiperidin-3-yl)-3,5-difluorophenethyl)-3-methoxypiperidin-4-yl)-1^1,2^6,7-trimethyl-3-oxo-5^2,5^3-dihydro-1^1H,5^1H-li-oxa-4-aza-5(2,1)-benzo[d]imidazola-2(2,4)-pyridina-1(4,5)-pyrazolacycloundecaphane-5^6-carboxamide] | 78.89% |
| 0.534 nM | 0.487 nM | 94% | CO[C@@H]1CN(CCc2cc(F)c([C@H]3CCC(=O)NC3=O)c(F)c2)CC[C@@H]1NC(=O)c1ccc2c(c1)N1C[C@H](C)CCCOc3c(cnn3C)-c3cc(cc(C)n3)C(=O)/N=C/1N2 [Example 245, (R,E)-N-((3R,4S)-1-(4-((R)-2,6-dioxopiperidin-3-yl)-3,5-difluorophenethyl)-3-methoxypiperidin-4-yl)-1^1,2^5,7-trimethyl-3-oxo-5^2,5^3-dihydro-1^1H,5^1H-11-oxa-4-aza-5(2,1)-benzo[d]imidazola-2(2,4)-pyridina-1(4,5)-pyrazolacycloundecaphane-5^6-carboxamide] | 81.9% |
| 0.602 nM | 0.613 nM | 93.8% | Cc1cc2cc(n1)-c1cnn(C)c1OCCC[C@@H](C)CN1/C(=N/C2=O)Nc2ccc(C(=O)N[C@@H]3CCN(CCc4cc(F)c([C@H]5CCC(=O)NC5=O)c(F)c4)C[C@@H]3F)cc21 [Example 246, (R,E)-N-((3S,4R)-1-(4-((R)-2,6-dioxopiperidin-3-yl)-3,5-difluorophenethyl)-3-fluoropiperidin-4-yl)-1^1,2^6,7-trimethyl-3-oxo-5^2,5^3-dihydro-1^1H,5^1H-11-oxa-4-aza-5(2,1)-benzo[d]imidazola-2(2,4)-pyridina-1(4,5)-pyrazolacycloundecaphane-5^6-carboxamide] | 85.73% |
